The values that follow come from US20040087539A1, “Method of treating conditions related to platelet activity” (priority 2003, published 2004).

The test system of experiment [1] is platelets. Nature of the experiment: Low-dose α-thrombin-induced aggregation of washed platelets. As to conditions: for platelet aggregation induced by 0.05 units/ml α-thrombin: washed platelets preincubated 5 min, KT5823 2 μM, Rp-8pCPT-cGMP 0.2 mM, SZ2 40 pg/ml [sic], FIG. 5A. Type of experiment: cell-based, human. On the procedure: (§1) Fresh blood from healthy volunteers was anticoagulated with 1/7 volume of ACD (2.5% trisodium citrate, 2% dextrose and 1.5% citric acid). Platelets were washed with CGS buffer (sodium chloride 0.12 M, trisodium citrate 0.0129 M and d-glucose 0.03 M, pH 6.5), resuspended in modified Tyrode's solution and allowed to incubate at 22° C. for 1 hours as previously described. In experiments using platelet-rich plasma (PRP), 1/10 volume of 3.8% trisodium citrate was used as anticoagulant. Platelet aggregation was measured using a turbidometric platelet aggregometer (Chrono-Log) at 37° C. vWF-dependent platelet aggregation was induced by addition of ristocetin or botrocetin to PRP. To differentiate CPIb-IX-mediated platelet agglutination from the second wave of integrin-dependent platelet aggregation, final concentrations of ristocetin were adjusted in each experiment to achieve a two-wave curve of aggregation. Washed platelets were used in platelet aggregation induced by a-thrombin (Enzyme Research Laboratories). To examine the effects of PKG, 100 μM of membrane permeable cGMP analogs, 8-bromo-cGMP or 8-dibutyl-cGMP (Calbiochem), or 1 μM sildenafil citrate (Pfizer) and added simultaneously with subthreshold concentrations of agonists. PKG inhibitors KT5823 (2 pM) and Rp-8PCPT-cGMP (0.2 mM) were preincubated with platelets at 37° C. for 5 minutes before addition of agonists.
In FIG. 5A, washed platelets were preincubated with 40 pg/mi anti-GPIba monoclonal antibody SZ2, integrin inhibitor RGDS, or inhibitors of PKG, KT5823 (2 μM) or Rp-8pCPT-cGMP (0.2 mM) (Calbiochem), for 5 min. Platelets also were preincubated with DMSO (vehicle for KT5823), KT5720 or buffer (Control) as controls. α-Thrombin (0.05 units/mi) then was added to induce platelet aggregation. Nonspecific JgG and RGES peptides also were examined as additional controls, but had no effect (not shown). In FIG. 5B, a subthreshold dose of thrombin was added to platelets immediately followed by addition of PKG activator 8-bromo-cGMP or buffer (Control). Shown in the figure are the representative results of at least three experiments.
(§2) In FIG. 6A, increasing concentrations of sildenafil or control 0.15 M NaCl solution were added to platelet-rich plasma followed by a subthreshold concentration of ristocetin. Platelet aggregation was recorded using a platelet aggregometer. In FIG. 6B, sildenafil or control buffer was added to washed platelets followed by addition of subthreshold doses of thrombin to induce platelet aggregation. It was noted that platelet aggregation occurs in the presence of sildenafil. The figure includes the representative results of at least three experiments.
(§3) In FIG. 7A, PRP was preincubated with 0.1 mM 8-bromo-cGMP for increasing lengths of time at 37° C. as indicated. The vWF modulator, ristocetin (1.25 mg/ml), then was added to induce platelet aggregation in a turbidometric platelet aggregometer. In FIG. 7B, PRP was preincubated with a high concentration of 8-bromo-cGMP (1 mM) for 5 minutes. Ristocetin then was added to induce platelet aggregation. In FIGS. 7C and 7D, washed platelets in modified Tyrode's solution were preincubated with 1 mM 8-bromo-cGMP (C), or various concentrations of 8-pCPT-cGMP (D) at 37° C. for 5 minutes. Thrombin (0.05 u/ml) then was added to induce platelet aggregation.

Experiment [2] has as its system platelets. Description: Ristocetin-induced vWF-dependent platelet aggregation in platelet-rich plasma. Type of experiment: cell-based, human. As to conditions: for integrin-dependent second wave of platelet aggregation induced by ristocetin: PRP preincubated 37° C. 5 min, KT5823 2 pM, Rp-8pCPT-cGMP 0.2 μM, KT5720 2 pM [sic], FIG. 3A. On the procedure:
as §1
In FIG. 3A, platelet rich-plasma (PRP) was preincubated at 37° C. for 5 mm with PKG inhibitors KT5823 (2 pM) or Rp-8pCPT-cGMP (0.2 μM). PRP was also incubated with DMSO (vehicle for KT5823), a PKA inhibitor, KT5720 (2 pM), or buffer (Control). The vWF modulator, ristocetin, was then added to induce vWF-GPIb-IX interaction. […] In FIG. 3B, a subthreshold concentration of ristocetin was added to PRP immediately followed by addition of 8-bromo-cGMP or buffer (Control). PRP also was preincubated with integrin inhibitor RGDS before adding ristocetin and 8-bromo-cGMP. In FIG. 3C, platelets were preincubated with or without PKG inhibitor KT5823, then allowed to spread on vWF-coated glass chamber slides. Platelets were stained with an anti-GPIb antibody, and fluorescein-labeled secondary antibody. The slides were imaged under a confocal microscope (magnification =630×).
as §2, §3

Experiment [3] deals with platelets. Nature of the experiment: Measurement of cGMP formation in washed platelets (enzyme immunoassay). As to conditions: ristocetin plus vWF 15 μg/ml or glyco-SNAP1 100 μM, 5 minutes, FIG. 4. It counts as cell-based, human. On the procedure: Washed platelets (3×10^8/ml) resuspended in 400 μl Tyrode's buffer were stirred at 37° C. after addition of control buffer, 1 mg/mi ristocetin alone, 15 pg/mi vWF and 1 mg/mi ristocetin, or 100 μM glyco-SNP1. The reaction was stopped by addition of 400 μl of ice-cold 12% (w/v) trichloroacetic acid. Samples were mixed and centrifuged at 2000×g for 15 ruin at […]. Supenatant was removed and washed with 5 volumes of water-saturated diethyl ether 4 times, and then lyophilized. cGMP levels were measured using a cGMP enzyme immunoassay kit from Amersham-Pharmacia Biotech.
Washed platelets (3×10^8/ml) were preincubated at 37° C. for 10 mm with buffer, control JgG, a monoclonal antibody against GPIba, AK2. Platelets then were further incubated in a platelet aggregometer for 5 minutes after addition of buffer (Control), 1.25 mg/ml ristocetin only (Risto), ristocetin plus vWF (vWF) (15 μg/ml) or glyco-SNAP1 (100 μM). The reaction was stopped by addition of 400 μl of ice-cold 12% (w/v) trichloroacetic acid. CGMP concentrations were determined using a cGMP enzyme immunoassay kit. Results are expressed as mean ±SD (n=3).

Experiment [4] has as its system CHO cells expressing human platelet receptors. Description: Cell adhesion to immobilized vWF under flow. Type of experiment: cell-based, Chinese Hamster. As to conditions: sildenafil 5 μM, RGDS 4 mM. On the procedure: CHO cells expressing human platelet receptors were resuspended in modified Tyrode's buffer, pH 7.4, containing 1 mg/mi of bovine serum albumin (BSA) (see Ref. 46), and final cell count was 5×10^5/ml. […] Purified human vWF (10 μg/ml in 0.1 M NaHCO3, pH 8.3) was added to glass microcapillary tubes (inner diameter of 1.33 mm and a length of 7.2 cm), and incubated at 4° C. for 20 h. The vWF-coated microcapillary tubes then were incubated with 5% BSA. After washing, the cell suspension was aspirated through the tube by a syringe pump (Harvard Apparatus Inc.) at desired shear rates for 1.2 minutes and washed with modified Tyrode's buffer for additional 10 minutes at the same shear rates to remove transiently adherent cells. The experiments were continuously recorded on videotape using a video cassette recorder (model 9500, Sony). The number of stably adherent cell on immobilized vWF was counted on images obtained at 20 randomly selected positions in the vWF-coated tubes.
In FIGS. 2A and B, vWF-coated capillary tubes were perfused with equivalent numbers (5×10^5/ml) of CHO cells expressing recombinant GPLb-JX alone (1b9), integrin αIIbβ3 alone (2b3a), both GPIb-IX and integrin αIIbβ3 (123) or expressing GPJb-JX, integrin α^IIbβ3 and PKG Ia (123PKG) at a shear rates of 800 s^−1 (A) or 1500 s^−1 (B) for 1.2 minutes, and then perfused with the modified Tyrodes buffer for 10 minutes at the same shear rates to wash out transient adherent cells. The expenments were recorded in real time. Cells stably adherent to vWF-coated capillary tubes at 20 randomly selected locations were counted.
In FIG. 2C, vector-transfected 123 cells (123) or 123PKG cells also was perfused into vWF-coated glass capillary tubes as described in FIG. 2A in the absence or presence (+RGDS) of an integrin inhibitor RGDS peptide (4 mM) and in the absence (Control) or presence of cGMP-enhancing drug, sildenafil (5 μM). […] The experiments were repeated at least three times.

With `Nc1nc2c(nc(Sc3ccc(Cl)cc3)n2C2O[C@@H]3COP(=O)(O)O[C@H]3[C@H]2O)c(=O)[nH]1` (stereo in doubt) [8-pCPT-cGMP], the “preincubation time required to inhibit platelets” value in experiment [1] (0.5 mM 8-pCPT-cGMP, washed platelets, thrombin 0.05 u/ml, FIG. 7D) is on record as “less than 5 minutes”. The “platelet aggregation together with a subthreshold concentration of ristocetin” value in experiment [2] (PRP, agent added with subthreshold ristocetin (1 mg/mm [sic]) (or botrocetin), FIGS. 3B, 6A) was “induced integrin-dependent platelet aggregation”.
Turning to `CCCCCCOC(=O)[C@]1(O)C[C@@H]2O[C@@]1(C)n1c3ccccc3c3c4c(c5c6ccccc6n2c5c31)C(=O)NC4` [KT5720], the “integrin-dependent second wave of platelet aggregation induced by ristocetin” value in experiment [2] is “no inhibitory effects”.
Turning to `Nc1nc2c(nc(Sc3ccc(Cl)cc3)n2C2OC3COP(O)(=S)OC3C2O)c(=O)[nH]1` (centres unmarked) [Rp-8-pCPT-cGMP], the “platelet aggregation induced by 0.05 units/ml α-thrombin” value in experiment [1] is “inhibited”. For the same compound, the “integrin-dependent second wave of platelet aggregation induced by ristocetin” value in experiment [2] is reported as “inhibited”.
As to `CC(=O)NC(C(=O)NC1OC(CO)C(O)C(O)C1O)C(C)(C)SN=O` (centres unmarked) [glyco-SNAP1], the “platelet cGMP levels” value in experiment [3] is given as “comparable”.
As to RGDS, the “platelet aggregation induced by 0.05 units/ml α-thrombin” value in experiment [1] is given as “inhibited”. Also, in experiment [4] (FIG. 2C, 8-bromo-cGMP not shown), the “stable adhesion of PKG-expressing 123 cells (123PKG) to vWF under flow” value is given as “inhibited”. In addition, the “stable adhesion of sildenafil-treated 123 cells to vWF under flow” value in experiment [4] is “inhibited”.
On to RGES, for which the “platelet aggregation induced by 0.05 units/ml α-thrombin” value in experiment [1] was “no effect”.
Consider “vWF: purified human von Willebrand factor, ligand of GPIb-IX”, for which, in experiment [3], the “platelet cGMP levels” value is “dramatic increase”.
